From article PMC4348493, “CD47 Agonist Peptides Induce Programmed Cell Death in Refractory Chronic Lymphocytic Leukemia B Cells via PLCγ1 Activation: Evidence from Mice and Humans” (PLoS Medicine, 2015)
“Also recorded” adds a separate entry of the source. Blank lines part the entries; values can stand above or below the molecule they belong to. Ends that are not written are not given here.

Assays:
[1] = system: MEC-1 cells; assay: Cell death by Annexin-V/PI in MEC-1 cells; type: cell-based, human; settings: PKHB1 200 μM, 2 h; etoposide 250 μM, 12 h (S7, S8 Figs)
Protocol: (§1) Mononuclear cells were purified from blood samples using a standard Ficoll-Hypaque gradient, and B cells were positively or negatively selected by magnetic microbeads coupled either to an anti-CD19 monoclonal antibody (positive selection) or to anti-CD16,-CD3, and-CD14 monoclonal antibodies (negative depletion) (Miltenyi Biotech). […] B lymphocytes, MEC-1, and M210B4 bone marrow stromal cells (ATCC) were cultured in complete medium (RPMI 1640 supplemented with 10% fetal calf serum, 2 mM L-glutamine, and 100 U/ml penicillin-streptomycin). In selected experiments, CLL cells were cultured in Ca^2+-free medium (RPMI 1640 without calcium, supplemented with dialyzed 10% fetal calf serum) prior to the induction of cell death.
Annexin-V-APC (0.1 μg/ml; BD Biosciences) was used for the assessment of phosphatidylserine exposure, propidium iodide (PI, 0.5 μg/ml) for cell viability analysis, and tetramethylrhodamine ethyl ester (TMRE, 20 nM) for mitochondrial transmembrane potential (ΔΨm) quantification. PCD was recorded in a FACSCanto II (BD Biosciences) in the total population (10,000 cells), and data were analyzed using FlowJo software. […] Calreticulin cell surface exposure was recorded with anti-calreticulin-PE (clone FMC75; Assay Designs). […]

[2] = system: CLL cells; assay: Caspase activity (FAM caspase detection kit) in CLL cells; type: cell-based, human; settings: PKHB1 200 μM, 2 h; etoposide 250 μM, 12 h; representative CLL donor (Fig 2G)
[3] = system: CLL B lymphocytes (CD19+/CD5+); settings: for Effect of pre-incubation on PKHB1-mediated cell death in CLL cells: added 30 min before PKHB1 200 μM, BAPTA 5 mM, BAPTA-AM 20 μM, 2-APB 60 μM, dantrolene 40 μM, U73122 200 nM, hSIRPα-Fc 15 μg/ml; for Cytotoxicity / PCD in CLL cells (Annexin-V and PI co-positivity): 200-μM peptides, 2 h of treatment (Fig 1D, 1E)
Protocol: as §1
(§2) Annexin-V-APC (0.1 μg/ml; BD Biosciences) was used for the assessment of phosphatidylserine exposure, propidium iodide (PI, 0.5 μg/ml) for cell viability analysis, and tetramethylrhodamine ethyl ester (TMRE, 20 nM) for mitochondrial transmembrane potential (ΔΨm) quantification. PCD was recorded in a FACSCanto II (BD Biosciences) in the total population (10,000 cells), and data were analyzed using FlowJo software. Chymotrypsin-like serine protease (serpase) or caspase cytofluorometric detection was performed with SerPase or Caspase activity kits from Imgenex (IMI-2301 and IMI-2315). Residual and leukemic B cells from CLL patients were discriminated from the mononuclear blood fraction by double labeling with anti-CD19 PerCP-Cyc5.5 (clone SJ25C1; BD Biosciences) and anti-CD5-PE-Cy7 mAb (clone L17F12; BD Biosciences). T cells from CLL patients were identified by a double anti-CD19 PerCP-Cyc5.5 and anti-CD3-PE-Cy7 (clone SK7; BD Biosciences) staining. Calreticulin cell surface exposure was recorded with anti-calreticulin-PE (clone FMC75; Assay Designs). […] A QuantiBRITE flow cytometry system (BD Biosciences) was used to assess the number of CD47 molecules expressed on normal and CLL B lymphocytes.
To induce PCD, 1 × 10^6 cells/ml were treated for 2 h with PKHB1 (200 μM), 4N1K (300 μM), 4NGG (300 μM), or an anti-CD47 monoclonal antibody ([…], clone B6H12 in soluble or immobilized conditions). To provide pro-survival microenvironment signals, CLL cells were pre-incubated with sCD40L (5 μg/ml) and IL-4 (20 ng/ml) or co-cultured with the M210B4 bone marrow stromal cell line (ATCC) before death was induced. To control for caspase-dependent apoptosis, cells were incubated for 12 h with etoposide (250 μM). For the inhibition assays, BAPTA-AM (20 μM); BAPTA (5 mM); Ru360 (750 nM); dantrolene (40 μM); 2-aminoethoxydiphenyl borate (2-APB, 60 μM); U73122 (200 nM); the broad spectrum caspase inhibitors Q-VD-OPh (QVD, 10 μM) and z-VAD-FMK (50 μM); the specific caspase inhibitors z-DEVD-FMK (50 μM, caspase-3/7), z-LEHD-FMK (50 μM, […]), and z-IETD-FMK (50 μM, […]); the serpase inhibitor TPCK (20 μM); or the fusion protein hSIRPα-Fc (15 μg/ml) was added 30 min before inducing PCD.

[4] = Peptide degradation assay in human serum (HPLC); type: in vitro ADME; settings: peptide 10 mg/ml in 1:4 human serum/RPMI 1640, 37°C, absorbance 220 nm
Protocol: 4N1K or PKHB1 (10 mg/ml), diluted in a 1:4 human serum/RPMI 1640 mixture, was incubated at 37°C for different lengths of time, then mixed with ethanol and 5 ml of 1 M NaOH and incubated at 4°C for at least 15 min to precipitate serum proteins. The supernatant was collected and injected in an HPLC system, and the soluble peptide was eluted by a linear gradient of 5% to 50% ACN (0.1% [v/v] TFA in acetonitrile) in aqueous 0.1% (v/v) TFA. The concentration of the peptide was calculated by the integration of the absorbance at 220 nm as a function of the retention time.

[5] = target: CD47 (Homo sapiens, UniProt Q08722); assay: Binding to CD47 (fluorescence polarization, isothermal titration calorimetry, microscale thermophoresis); settings: isothermal titration calorimetry and microscale thermophoresis binding assays (methods per ref 82), read-out: Dissociation constant (Kd) to CD47
Text: Supplementary file pmed.1001796.s002.tif: S2 Fig Primary structure of 4NGG, 4N1K, and PKHB1. In 4NGG, the two central valines of 4N1K were replaced by glycines (highlighted in red). In PKHB1, the N- and C-terminal lysines of 4N1K were replaced with their D counterparts (highlighted in green). […] (TIF) Click here for additional data file.

[6] = system: CD19-/CD3+ T cells; assay: Cell death by Annexin-V/PI in T cells of CLL patients; type: cell-based, human; settings: 200 μM, 2 h; n = 8 (Fig 1G)
Protocol: as §2, with “lymphocytes. […]” for “lymphocytes.”

[7] = system: CD19+/CD5- B cells (residual B cells); assay: Cell death by Annexin-V/PI in residual B cells of CLL patients; type: cell-based, human; settings: 200 μM, 2 h; n = 20 (Fig 1G)
Protocol: as §2, with “lymphocytes. […]” for “lymphocytes.”

[8] = Mice toxicity studies (hematology, kidney and liver histology); type: in vivo, mouse (NSG; settings: weekly intraperitoneal injection, 10 mg/kg, 3 wk, NSG or C57BL/6 mice (S9 Fig)
Protocol: In mice toxicity studies, we used the same injection protocol as in xenografted NSG mice. The hematological parameters were monitored in blood drawn from the retro-orbital plexus from either vehicle- (PBS) or PKHB1-treated wild-type mice (C57BL/6) with an MS9–5 analyzer (Melet Schloesing). Kidneys and livers (24 h after the third injection of PBS or PKHB1) were fixed and embedded in paraffin. Paraffin sections ([…] thick) of kidney and liver were deparaffinized and rehydrated before staining with periodic acid—Schiff and hematoxylin-eosin, respectively.

[9] = system: MEC-1 tumors; assay: CLL-xenograft model: MEC-1 tumors in NSG mice; type: in vivo, mouse (NOD/scid gamma); settings: weekly intraperitoneal injection; n = 8 per group (Fig 7C)
Protocol: In the CLL-xenograft model, MEC-1 cells (3 × 10^6) were injected subcutaneously into NOD/scid gamma (NSG) mice. When the tumor volume reached 100 mm^3, mice received intraperitoneal injections of PBS, PKHB1, or 4N1K (200 μg in 200 μl of PBS) once a week. Tumor size was measured with a caliper, and tumor volume was calculated using the formula (length × width^2)/2 and expressed in cubic millimeters. Alternatively, at 28 d after the engraftment, XenoLight RediJect 2-DG 750 Probe (Caliper) was injected into the retro-orbital sinus to visualize tumor glucose uptake, which reflects cell proliferation. Fluorescence was measured using an in vivo imaging system FX Pro (Kodak), and pictures were analyzed with Carestream Molecular Imaging software.
To determine hemoglobin levels, tumors were excised from euthanized mice, weighed, and homogenized in PBS. After centrifugation, formic acid was added to the supernatant, and the hemoglobin concentration was calculated based on the absorbance at 405 nm.
To assess PCD, calreticulin exposure, and PLCγ1-Y783, dissociated tumors were digested in medium containing Liberase-TL (Roche), DNase-I (Calbiochem), and Collagenase-IV (Life Technologies). Single-cell suspension, obtained by filtering through a […] cell strainer, was analyzed by flow cytometry.

[10] = target: T1, CD47 (UniProt Q08722 19-323); assay: fluorescence polarisation + ITC + MST; not told; one Kd is printed for each peptide for the three methods together; the legend refers to ref. 82
T1 construct: CD47; in the cell death assays it is the endogenous CD47 on human CLL B cells; the CD47 preparation is not described; also called cell surface receptor CD47
T1 sequence (Q08722 19-323): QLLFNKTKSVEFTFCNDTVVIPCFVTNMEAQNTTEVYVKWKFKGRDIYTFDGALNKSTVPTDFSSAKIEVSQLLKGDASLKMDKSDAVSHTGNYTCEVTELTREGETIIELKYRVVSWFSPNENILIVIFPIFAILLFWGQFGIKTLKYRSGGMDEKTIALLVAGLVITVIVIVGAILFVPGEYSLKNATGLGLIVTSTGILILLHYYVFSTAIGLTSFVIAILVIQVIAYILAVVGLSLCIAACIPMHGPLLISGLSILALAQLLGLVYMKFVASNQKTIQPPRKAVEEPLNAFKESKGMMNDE

CD47 (Homo sapiens, UniProt Q08722), sequence (Q08722 19-323): as above

Molecule: COc1cc([C@@H]2c3cc4c(cc3[C@@H](O[C@@H]3O[C@@H]5CO[C@@H](C)O[C@H]5[C@H](O)[C@H]3O)[C@H]3COC(=O)[C@H]23)OCO4)cc(OC)c1O [etoposide]
Cell death response of MEC-1 cells (dysfunctional TP53) [1]: resistant to etoposide treatment
Activated caspases, positive cells [2]: ~ 47%
Cell death response with microenvironment survival signals (sCD40L + IL-4 or M210B4 bone marrow stromal cells) ([3]; PKHB1 200 μM, 2 h, etoposide 250 μM, 12 h, n = 8 patients (Fig 2B)): significantly diminished

Molecule: O=C(O)CN(CC(=O)O)c1ccccc1OCCOc1ccccc1N(CC(=O)O)CC(=O)O [BAPTA]
Effect of pre-incubation on PKHB1-mediated cell death in CLL cells ([3]; 2 h): abolished

Molecule: COc1ccc2c(c1)CC[C@@H]1[C@@H]2CC[C@]2(C)[C@@H](NCCCCCCN3C(=O)C=CC3=O)CC[C@@H]12 [U73122]
Effect of pre-incubation on PKHB1-mediated cell death in CLL cells ([3]; 2 h): significantly decreased PCD

Molecule: CSCC[C@H](NC(=O)[C@@H](NC(=O)[C@@H](NC(=O)[C@H](Cc1ccc(O)cc1)NC(=O)[C@H](Cc1ccccc1)NC(=O)[C@H](CCCNC(=N)N)NC(=O)[C@@H](N)CCCCN)C(C)C)C(C)C)C(=O)N[C@@H](Cc1c[nH]c2ccccc12)C(=O)N[C@@H](CCCCN)C(=O)N[C@@H](CCCCN)C(=O)O [4N1K]
Cytotoxicity / PCD in CLL cells (Annexin-V and PI co-positivity) [3]: ~ 25%
metabolised at 1 h, 10 mg/ml ([4]; human serum diluted 1:4 in RPMI 1640, 1-h incubation, serum proteins precipitated with ethanol/NaOH, read-out: Peptide degraded in human serum): > 90%

Kd [5]: 1000 µM
Molecule: KRFYGGMWKK [4NGG]

Molecule: CSCC[C@H](NC(=O)[C@@H](NC(=O)[C@@H](NC(=O)[C@H](Cc1ccc(O)cc1)NC(=O)[C@H](Cc1ccccc1)NC(=O)[C@H](CCCNC(=N)N)NC(=O)[C@H](N)CCCCN)C(C)C)C(C)C)C(=O)N[C@@H](Cc1c[nH]c2ccccc12)C(=O)N[C@@H](CCCCN)C(=O)N[C@H](CCCCN)C(=O)O [PKHB1]
Cytotoxicity in T cells of CLL patients [6]: ~ 10%
Cytotoxicity in residual CD5- B lymphocytes of CLL patients [7]: ~ 5%
Blood, liver, kidney toxicity [8]: no toxic effect; also recorded: No blood, liver, or kidney toxicity
Cytotoxicity / PCD in CLL cells (Annexin-V and PI co-positivity) [3]: ~ 49%
Anemia (hemoglobin levels within the engrafted tumors) [9]: did not provoke anemia
Degradation during long-term incubation in human serum ([4]; long-term incubation): not degraded

Molecule: CC(=O)OCOC(=O)CN(CC(=O)OCOC(C)=O)c1ccccc1OCCOc1ccccc1N(CC(=O)OCOC(C)=O)CC(=O)OCOC(C)=O [BAPTA-AM]
Effect of pre-incubation on PKHB1-mediated cell death in CLL cells ([3]; 2 h): significantly decreased

Molecule: O=C1CN(/N=C/c2ccc(-c3ccc([N+](=O)[O-])cc3)o2)C(O)=N1 [dantrolene]
Effect of pre-incubation on PKHB1-mediated cell death in CLL cells ([3]; 2 h): significantly decreased

Molecule: NCCOB(c1ccccc1)c1ccccc1 [2-APB, 2-aminoethoxydiphenyl borate]
Effect of pre-incubation on PKHB1-mediated cell death in CLL cells ([3]; 2 h): significantly decreased

Kd [10]: 0.4 µM
B1: PKHB1 (peptide)
peptide: KRFYVVMWKK
modifications: D-lysine at the N-terminus and D-lysine at the C-terminus (printed as lower-case k)
notes: N-terminal lysine, not part of thrombospondin-1 (introduced in 4N1K to improve solubility); here the D analogue; stretch of the C-terminal domain of thrombospondin-1 (TSP1); C-terminal lysine, not part of thrombospondin-1 (introduced in 4N1K to improve solubility); 4N1K with its N- and C-terminal lysines replaced by their D counterparts; also called k-R-F-Y-V-V-M-W-K-k; source: synthetic peptide …

Kd [10]: 1.5 µM
B2: 4N1K (peptide)
peptide: KRFYVVMWKK
notes: N-terminal lysine introduced to improve solubility, not part of thrombospondin-1; stretch of the C-terminal domain of thrombospondin-1 (TSP1); C-terminal lysine introduced to improve solubility, not part of thrombospondin-1; also called K-R-F-Y-V-V-M-W-K-K; TSP1-derived decapeptide; source: synthetic peptide (solid-phase synthesis, purified by reverse phase HPLC, purity greater than 95%)
